Our source for the melting point, cell toxicity and IC50 values is patent US7323458B1, “Dihydrobenzodiazepins and their use for treating dyslipidemia” (Merck Patent Gesellschaft Mit Beschrankter Haftung, priority 1999, dated 2008).

pIC50: −log10 of the molar value.

For orientation: melting point means the temperature, or range, at which the solid turns liquid.

Series [1] has as its system Hep G2 cells. In words: Toxicity on the cells by staining with neutral red. Format: cell-based, human. The following applies: for the concentrations studied. Here is the method: In the absence of a chemical treatment, the response of the cells is 100% (0% inhibition). Under the conditions used, the effect of DMSO on the cells is negligible. The toxicity of the chemical substances on the cells is measured by the technique of staining with neutral red.
(§1) The percentage of inhibition is calculated only for the substances that show no toxicity on the Hep G2 cells.

Series [2] deals with secretion of apo CIII. Put plainly: Reduction of apo CIII secretion by Hep G2 human hepatocytes in culture (ELISA). Format: cell-based. The note with it: HepG2, Hep G2 cells, 24 hours incubation, read-out: concentration which gives a 50% inhibition of the secretion of Apo CIII. Here is the method: The hypolipidaemiant activity of the compounds of the invention result from their ability to reduce the secretion of apo CIII.
The Hep G2 cell line is derived from a human hepatic carcinoma (ref. ECACC No. 85011430).
The cells are cultured at 37° C., 5% CO2 in 96-well microtitration plates at a rate of 40 000 cells (200 μl) per well in a DMEM buffer, 10% foetal calf serum, 1% Glutamax+antibiotics, for 24 hours. […] The cells are incubated for 24 hours at 37° C., 5% CO2 and the medium is then removed.
The amount of apolipoprotein CIII secreted into the medium is measured by means of an assay of ELISA type. Each sample of culture medium is diluted 5-fold in a 100 mM phosphate buffer, 1% BSA. […]
The optical density is read directly using a spectrophotometer at 492 nm. The amount of Apo CIII is calculated relative to a calibration curve produced using an assayed human serum of Apo CIII and diluted under the same conditions as the Apo CIII contained in the culture medium. […]
The active substances bring about a reduction in the secretion of Apo CIII into the medium by the adherent cells. The concentration of Apo CIII is measured for each treatment and compared with the control test (no treatment).
The percentage of inhibition is calculated according to: […]
as §1
A general note: ELISA stands for enzyme-linked immunosorbent assay.

On to `CC1=CSC2=Nc3ccccc3CCN12` [Example 50], for which the melting point lay within 194 to 196 °C.

Compound `C1=C(c2ccc3ccccc3c2)N2CCc3ccccc3N=C2S1` [Example 47] gave a melting point of 188.5 to 189.5 °C.

`C1=C(c2ccc(Oc3ccccc3)cc2)N2CCc3ccccc3N=C2S1` [Example 67] returned a melting point of 204 to 205 °C.

`CCOC(=O)c1ccc(C2=CSC3=Nc4ccccc4CCN23)cc1` [Example 36, 3-[4-(ethoxycarbonyl)phenyl]-5,6-dihydro-thiazolo-[2,3-b]-1,3-benzodiazepine] came in with a melting point of 231 to 233 °C.

Consider `C1=C(c2ccc(-c3ccccc3)cc2)N2CCc3ccccc3N=C2S1` [Example 4, 3-(biphenyl-4-yl)-5,6-dihydrothiazolo[2,3-b]-1,3-benzodiazepine], for which, in series [1], the cell toxicity entry is “No cell toxicity is observed”. Moreover, in series [2], the pIC50 is 4.76.
